Measured values as given in patent US9096624B2 (OSI Pharmaceuticals, LLC, priority 2009, dated 2015).
Several values for one entry are separate records, joined by “and”; a condition that tells them apart may be missing. Equal entries are not always repeated.

Key:
FAK [1] = target: T1, FAK (Homo sapiens, UniProt Q05397); test: biochemical
FAK [2] = target: T1, FAK; test: Cell-based capture ELISA for inhibition of FAK autophosphorylation [pY397] in U87MG cells
FAK [3] = target: T1, FAK; test: Cell-based capture ELISA for inhibition of FAK autophosphorylation [pY397] in MiaPaCa2 cells
Protocol: Cell-Based Assays for Inhibition of FAK Autophosphorylation: MiaPaCa2 and U87MG
ELISA kit from Invitrogen (KHO0441).
Reagents Provided in Biosource FAK [pY397]
The cells were then suspended in cell assay medium.

[4] = Mean FAK Cell Mechanistic IC50 + 50% mP U87MG, + 50% mouse plasma
[5] = U87MG FAK Cell Mech IC50 +hP, + human plasma
[6] = U87MG FAK Cell Mech IC50 +mP, + mouse plasma
[7] = MIA-PaCa2 cells, + 50% mouse plasma (Table 2), read-out: Mean FAK Cell Mechanistic IC50 + 50% mP MIA-PaCa2
[8] = MIA-PaCa2 cells, + 50% mouse plasma (Table 3), read-out: Mean FAK Cell Mechanistic IC50 + 50% mP MIA-PaCa2
[9] = MIA-PaCa2 cells on fibronectin, 2 h, no plasma, read-out: Mean FAK Cell Mechanistic IC50 MIA-PaCa2
[10] = MIA-PaCa2 cells, + 50% human plasma, read-out: Mean FAK Cell Mechanistic IC50 + 50% hP MIA-PaCa2

T1 sequence (Q05397 whole entry): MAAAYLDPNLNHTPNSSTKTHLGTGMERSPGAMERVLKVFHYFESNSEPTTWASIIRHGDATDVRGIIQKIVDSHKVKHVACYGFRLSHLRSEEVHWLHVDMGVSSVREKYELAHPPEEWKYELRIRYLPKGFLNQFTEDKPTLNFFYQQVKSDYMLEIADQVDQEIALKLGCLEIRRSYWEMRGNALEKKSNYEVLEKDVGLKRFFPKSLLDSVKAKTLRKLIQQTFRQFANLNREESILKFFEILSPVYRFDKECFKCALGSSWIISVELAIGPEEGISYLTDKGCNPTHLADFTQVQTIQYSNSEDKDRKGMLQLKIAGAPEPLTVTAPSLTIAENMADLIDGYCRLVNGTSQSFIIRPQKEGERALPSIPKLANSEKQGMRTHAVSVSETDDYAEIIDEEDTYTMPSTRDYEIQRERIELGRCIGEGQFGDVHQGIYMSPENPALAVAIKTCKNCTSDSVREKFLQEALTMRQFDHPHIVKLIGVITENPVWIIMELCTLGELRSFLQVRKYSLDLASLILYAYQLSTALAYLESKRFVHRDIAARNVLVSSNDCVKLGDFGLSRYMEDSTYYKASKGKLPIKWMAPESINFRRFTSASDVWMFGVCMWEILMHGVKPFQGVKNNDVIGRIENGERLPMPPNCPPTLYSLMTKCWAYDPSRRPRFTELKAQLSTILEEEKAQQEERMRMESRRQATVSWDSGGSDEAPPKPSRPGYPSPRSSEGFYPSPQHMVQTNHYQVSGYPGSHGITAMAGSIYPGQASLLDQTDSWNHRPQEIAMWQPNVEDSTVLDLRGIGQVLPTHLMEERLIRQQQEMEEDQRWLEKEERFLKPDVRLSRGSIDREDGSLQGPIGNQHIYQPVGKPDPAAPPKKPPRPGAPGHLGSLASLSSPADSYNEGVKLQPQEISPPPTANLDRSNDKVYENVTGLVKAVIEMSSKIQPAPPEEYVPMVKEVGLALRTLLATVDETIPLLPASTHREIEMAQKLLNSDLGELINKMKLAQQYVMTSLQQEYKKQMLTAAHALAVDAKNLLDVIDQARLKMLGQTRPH

Compound | IC50 (FAK [1]) | IC50 (FAK [3]; [7]) | further results
CCOP(=O)(Cc1ccc(Nc2ncc(C(F)(F)F)c(Nc3ccc([C@H]4CC[C@@H](C(N)=O)CC4)c4c3C(=O)N(C)C4)n2)c(OC)c1)OCC [Example 272, Diethyl (4-{[4-{[7-(cis-4-carbamoylcyclohexyl)-2-methyl-3-oxo-2,3-dihydro-1H-isoindol-4-yl]amino}-5-(trifluoromethyl)pyrimidin-2-yl]amino}-3-methoxybenzyl)phosphonate] | < 1000 nM | – | IC50 (FAK [2]; [4]): < 1000 nM
CCOP(=O)(Cc1ccc(Nc2ncc(C(F)(F)F)c(Nc3ccc(-c4cnn(CCCO)c4)c4c3C(=O)N(C)C4)n2)c(OC)c1)OCC [Example 289, Diethyl (4-{[4-({7-[1-(3-hydroxypropyl)-1H-pyrazol-4-yl]-2-methyl-3-oxo-2,3-dihydro-1H-isoindol-4-yl}amino)-5-(trifluoromethyl)pyrimidin-2-yl]amino}-3-methoxybenzyl)phosphonate] | < 1000 nM | – | IC50 (FAK [2]; [4]): < 1000 nM
CCOP(=O)(Cc1ccc(Nc2ncc(C(F)(F)F)c(Nc3ccc([C@H]4CC[C@H](O)CC4)c4c3C(=O)N(C)C4)n2)c(OC)n1)OCC [Example 286, Diethyl [(5-{[4-{[7-(trans-4-hydroxycyclohexyl)-2-methyl-3-oxo-2,3-dihydro-1H-isoindol-4-yl]amino}-5-(trifluoromethyl)pyrimidin-2-yl]amino}-6-methoxypyridin-2-yl)methyl]phosphonate] | < 1000 nM | – | IC50 (FAK [2]; [4]): < 1000 nM
CCOP(=O)(Cc1ccc(Nc2ncc(C(F)(F)F)c(Nc3c4c(cc[n+]3[O-])CN(C)C4=O)n2)c(OC)c1)OCC [Example 310] | < 1000 nM | – | IC50 (FAK [2]; [4]): 1000 to 10000 nM
CCOP(=O)(Cc1ccc(Nc2ncc(C(F)(F)F)c(Nc3ccccc3C(=O)NOC)n2)c(OC)c1)OCC [Example 259, Diethyl (3-methoxy-4-{[4-{[2-(methoxycarbamoyl)phenyl]amino}-5-(trifluoromethyl)pyrimidin-2-yl]amino}benzyl)phosphonate] | < 1000 nM | – | IC50 (FAK [2]; [4]): < 1000 nM
CCOP(=O)(Cc1ccc(Nc2ncc(C(F)(F)F)c(Nc3ccc([C@H]4CC[C@@](C)(C(=O)O)CC4)c4c3C(=O)N(C)C4)n2)c(OC)c1)OCC [Example 284, cis-4-(7-{[2-({4-[(Diethoxyphosphoryl)methyl]-2-methoxyphenyl}amino)-5-(trifluoromethyl)pyrimidin-4-yl]amino}-2-methyl-1-oxo-2,3-dihydro-1H-isoindol-4-yl)-1-methylcyclohexanecarboxylic acid] | < 1000 nM | – | IC50 (FAK [2]; [4]): < 1000 nM
CCOP(=O)(Cc1ccc(Nc2ncc(C(F)(F)F)c(Nc3ccccc3C(=O)O)n2)c(OC)c1)OCC [Example 290, 2-{[2-({4-[(Diethoxyphosphoryl)methyl]-2-methoxyphenyl}amino)-5-(trifluoromethyl)pyrimidin-4-yl]amino}benzoic acid] | – | – | IC50 (FAK [2]; [4]): 1000 to 10000 nM
COc1cc(P(C)(C)=O)ccc1Nc1ncc(Cl)c(Nc2ccccc2C(=O)NC(C)C)n1 [Cpd A, reference compound] | – | – | IC50 (FAK [2]; [5]): > 4000 nM; IC50 (FAK [2]; [6]): 3.69 µM and > 4 µM (3×)
CCOP(=O)(Cc1ccc(Nc2ncc(C(F)(F)F)c(Nc3ccc(C4=CCN(C(N)=O)CC4)c4c3C(=O)N(C)C4)n2)c(OC)c1)OCC [Example 73, Diethyl (4-{[4-{[7-(1-carbamoyl-1,2,3,6-tetrahydropyridin-4-yl)-2-methyl-3-oxo-2,3-dihydro-1H-isoindol-4-yl]amino}-5-(trifluoromethyl)pyrimidin-2-yl]amino}-3-methoxybenzyl)phosphonate] | < 1000 nM | < 1000 nM | –
CCCCOP(=O)(Cc1cccc(Nc2ncc(C(F)(F)F)c(NCc3cccnc3N(C)S(C)(=O)=O)n2)c1)OCCCC [Example 54, dibutyl [3-({4-[({2-[methyl(methylsulfonyl)amino]pyridin-3-yl}methyl)amino]-5-(trifluoromethyl)pyrimidin-2-yl}amino)benzyl]phosphonate] | < 1000 nM | > 10000 nM | –
CCOP(=O)(Cc1cccc(Nc2ncc(C(F)(F)F)c(NCc3cccnc3N(C)S(C)(=O)=O)n2)c1)c1ccccc1 (stereo not drawn) [Example 51, Ethyl [3-({4-[({2-[methyl(methylsulfonyl)amino]pyridin-3-yl}methyl)amino]-5-(trifluoromethyl)pyrimidin-2-yl}amino)benzyl]phenylphosphinate] | < 1000 nM | > 10000 nM | –
CCOP(=O)(Cc1ccc(Nc2ncc(C(F)(F)F)c(Nc3ccc(C(=O)O)c4c3C(=O)N(C)C4)n2)c(OC)c1)OCC [Example 129, 7-{[2-({4-[(Diethoxyphosphoryl)methyl]-2-methoxyphenyl}amino)-5-(trifluoromethyl)pyrimidin-4-yl]amino}-2-methyl-1-oxo-2,3-dihydro-1H-isoindole-4-carboxylic acid] | < 1000 nM | – | IC50 (FAK [3]; [8]): 1000 to 10000 nM
CCCOP(=O)(Cc1ccc(Nc2ncc(C(F)(F)F)c(NCc3cccnc3N(C)S(C)(=O)=O)n2)cc1)OCCC [Example 28, dipropyl [4-({4-[({2-[methyl(methylsulfonyl)amino]pyridin-3-yl}methyl)amino]-5-(trifluoromethyl)pyrimidin-2-yl}amino)benzyl]phosphonate] | < 1000 nM | < 1000 nM | IC50 (FAK [3]; [9]): < 1000 nM; IC50 (FAK [3]; [10]): < 1000 nM
COc1cc(P(C)(C)=O)ccc1Nc1ncc(Cl)c(Nc2cccc3c2C(=O)N(C)C3)n1 [Cpd B, reference compound] | – | – | IC50 (FAK [2]; [5]): > 4000 nM; IC50 (FAK [2]; [6]): 257 nM and 540 nM
CCOP(=O)(Cc1ccc(Nc2ncc(C(F)(F)F)c(Nc3ccccc3C(N)=O)n2)c(OC)c1)OCC [Example 190, Diethyl [4-({4-[(2-carbamoylphenyl)amino]-5-(trifluoromethyl)pyrimidin-2-yl}amino)-3-methoxybenzyl]phosphonate] | < 1000 nM | – | IC50 (FAK [3]; [8]): < 1000 nM
CCOP(=O)(Cc1ccc(Nc2ncc(C(F)(F)F)c(Nc3ccc(CN4CCCC4)c4c3C(=O)N(C)C4)n2)cc1)OCC [Example 109, Diethyl (4-{[4-{[2-methyl-3-oxo-7-(pyrrolidin-1-ylmethyl)-2,3-dihydro-1H-isoindol-4-yl]amino}-5-(trifluoromethyl)pyrimidin-2-yl]amino}benzyl)phosphonate] | < 1000 nM | – | IC50 (FAK [3]; [8]): 1000 to 10000 nM
CCP(=O)(CC)Cc1cccc(Nc2ncc(C(F)(F)F)c(NCc3cccnc3N(C)S(C)(=O)=O)n2)c1 [Example 11, N-[3-({[2-({3-[(Diethylphosphoryl)methyl]phenyl}amino)-5-(trifluoromethyl)pyrimidin-4-yl]amino}methyl)pyridin-2-yl]-N-methylmethanesulfonamide] | < 1000 nM | < 1000 nM | IC50 (FAK [3]; [9]): < 1000 nM; IC50 (FAK [3]; [10]): < 1000 nM
CCOP(=O)(OCC)C(F)(F)c1ccc(Nc2ncc(C(F)(F)F)c(Nc3ccccc3C(=O)NC)n2)cc1 [Example 188, Diethyl [difluoro(4-{[4-{[2-(methylcarbamoyl)phenyl]amino}-5-(trifluoromethyl)-pyrimidin-2-yl]amino}phenyl)methyl]phosphonate] | < 1000 nM | – | IC50 (FAK [3]; [8]): < 1000 nM
CCOP(=O)(Cc1ccc(Nc2ncc(C(F)(F)F)c(Nc3ccc([C@@H]4C[C@@H](O)[C@@H](O)C4)c4c3C(=O)N(C)C4)n2)c(OC)c1)OCC [Example 243, Diethyl (4-{[4-({7-[-3,4-dihydroxycyclopentyl]-2-methyl-3-oxo-2,3-dihydro-1H-isoindol-4-yl}amino)-5-(trifluoromethyl)pyrimidin-2-yl]amino}-3-methoxybenzyl) phosphonate] | < 1000 nM | – | IC50 (FAK [3]; [8]): < 1000 nM
CCOP(=O)(Cc1ccc(Nc2ncc(Cl)c(Nc3ccccc3C(=O)NC)n2)cc1)OCC [Example 48, Diethyl {4-[(5-chloro-4-{[2-(methylcarbamoyl)phenyl]amino}pyrimidin-2-yl)amino]benzyl}phosphonate] | < 1000 nM | 1000 to 10000 nM | –
CCOP(=O)(OCC)c1cccc(Nc2ncc(C(F)(F)F)c(NCc3cccnc3N(C)S(C)(=O)=O)n2)c1 [Example 39, diethyl [3-({4-[({2-[methyl(methylsulfonyl)amino]pyridin-3-yl}methyl)amino]-5-(trifluoromethyl)pyrimidin-2-yl}amino)phenyl]phosphonate] | < 1000 nM | 1000 to 10000 nM | –
CCOP(=O)(OCC)C(OCC(F)(F)F)c1ccc(Nc2ncc(C(F)(F)F)c(Nc3ccccc3C(=O)NC)n2)cc1 (stereo not drawn) [Example 115, Diethyl [(4-{[4-{[2-(methylcarbamoyl)phenyl]amino}-5-(trifluoromethyl)pyrimidin-2-yl]amino}phenyl)(2,2,2-trifluoroethoxy)methyl]phosphonate] | < 1000 nM | – | IC50 (FAK [3]; [8]): 1000 to 10000 nM
CCOP(=O)(Cc1ccc(Nc2ncc(C(F)(F)F)c(Nc3ccc(C(=O)OC)c4c3C(=O)N(C)C4)n2)c(OC)c1)OCC [Example 119, Methyl 7-{[2-({4-[(diethoxyphosphoryl)methyl]-2-methoxyphenyl}amino)-5-(trifluoromethyl)pyrimidin-4-yl]amino}-2-methyl-1-oxo-2,3-dihydro-1H-isoindole-4-carboxylate] | < 1000 nM | – | IC50 (FAK [3]; [8]): < 1000 nM
CN(c1ncccc1CNc1nc(Nc2cccc(CP(=O)(OCC(C)(C)C)OCC(C)(C)C)c2)ncc1C(F)(F)F)S(C)(=O)=O [Example 55, bis(2,2-dimethylpropyl) [3-({4-[({2-[methyl(methylsulfonyl)amino]pyridin-3-yl}methyl)amino]-5-(trifluoromethyl)pyrimidin-2-yl}amino)benzyl]phosphonate] | < 1000 nM | > 10000 nM | –
